Laboratory results from PMC6821791, “Phase I Trial of Pyragrel, a Novel Thromboxane Synthetase Inhibitor, to Evaluate the Safety, Tolerability, and Pharmacokinetics in Healthy Volunteers” (Frontiers in Pharmacology, 2019).

Key:
[1] = Part IV urinary excretion of pyragrel and four metabolites; type: in vivo, human; details: for Total cumulative urine excreted amounts over 24 h: 12 subjects; for Accumulative urinary excretion rate: over 24 h; for Cumulative urinary drug recovery (normalized to pyragrel) within 24 h: n=12, Mean ± SD
Experimental: Urine samples were collected after the initiation of pyragrel infusion as follows in Part IV: 0–3 (3 h infusion period), 3–7, 7–11, 11–15, and 15–24 h after pyragrel administration during each period. […] Production of 11-dehydro-thrombxane B2 (11-D-HTXB2) in urine sample was detected by ELISA method.

[2] = Acute toxicity study in mice; type: in vivo
[3] = Part I single-ascending-dose plasma pharmacokinetics (HPLC-MS/MS, noncompartmental); type: in vivo, human
Experimental: (§1) Pyragrel administration regimens are as follows: In the single-escalating-dose study (Part I), a total of 52 subjects are enrolled to receive one of three treatments (pyragrel, ozagrel, or placebo, diluted in 500 Ml normal saline) as a 3-h i.v. infusion. Six dose levels of pyragrel (30, 60,120, 180, 240, 300 mg) were intravenously infused to healthy subjects. Of the 12 subjects each at the first three dose groups (30, 60, and 120 mg), 8 received pyragrel, 2 received ozagrel (80 mg), and 2 received placebo. Eight subjects were assigned as 4/2/2 for pyragrel, ozagrel, and placebo at the 180 mg level. Only four subjects were enrolled at the 240- and 300-mg group each; all received pyragrel. […] In the saline-volume-changed study (Part II), the safety and pharmacokinetics of pyragrel were assessed by decreasing the volume of dilution saline. Four subjects received a single 3 h infusion of pyragrel 240 mg diluted in 250 ml saline instead of the 500 ml used in Part I. Blood samples were collected at multiple time points before and after the initiation of the infusion in Part I and Part II; 15 blood samples were predetermined as follows: before drug administration (time 0), 0.5, 1, 2, 3 (4 samples collected during infusion), 3.25, 3.5, 4, 5, 7, 9, 11, 15, 24, and 48 h (10 samples collected post infusion) after the initiation of the infusion. In the multiple-dose study (Part III), 12 subjects received a single 3 h infusion of 180 mg pyragrel (diluted in 250 ml saline) on Day 1 and Day 6 and twice 3 h infusion of 180 mg pyragrel from Day 2 to 5; 14 blood samples were collected on Day 1 and Day 6 before drug administration (0 h), 0.5, 1, 2, 3, 3.25, 3.5, 4, 5, 7, 9, 11, 15, 24 h after the initiation of the infusion; moreover, 5 ml cubital vein blood was collected each time right before pyragrel infusion on Day 2 to Day 5. In the 3×3 crossover study (Part IV), 12 subjects were randomized to receive each of the three dosing groups (60, 120, or 240 mg) of pyragrel (diluted with 250 ml saline, 3 h infusion) per period, with a 7-day washout period between doses. Sixteen blood samples were collected as follows: before drug administration (0 h), 0.17, 0.35, 0.5, 1, 2, 3, 3.25, 3.5, 4, 5, 7, 9, 11, 15, and 24 h after the initiation of the infusion at each period. In the prolonged infusion study (Part V), four subjects received continuous 24 h infusion of pyragrel 360 mg (diluted in 600 ml saline); 19 blood samples were collected as follows: before drug administration (0 h), 0.25, 0.5, 1, 2, 4, 8, 12, 16, 20 (nine samples collected during administration), 24.25, 24.5, 25, 26, 28, 30, 32, 36, and 48 h after the initiation of the infusion (details shown in Figure 1 ). In all five cohorts, 5 ml of cubital vein blood was collected with a sodium heparin anticoagulant tube and centrifuged at 3000 r·min^-1. Each plasma sample was divided into two aliquots and stored at −20°C until further bioanalysis. […] Briefly, 10 µl of the extract drug from […] was injected onto a Zorbax EcLipse XDB C18 column (2.1 mm × 150 mm, 5 μm) (Agilent, USA) using isocratic elution with a mobile phase composed of methanol, water, and formic acid (65:35:0.1, v/v/v). Determination of the analytes was achieved by tandem-mass spectrometry with positive electrospray ionization.
(§2) Pharmacokinetic parameters were calculated using the noncompartmental model (NCA module), WinNonlin 6.1 (Pharsight Corporation, Mountain View, CA, USA). Statistical analysis was performed with SPSS 18. The actual dosing and sampling times were utilized in the analysis. Pharmacokinetic parameters were summarized by dose regimens using descriptive statistics, including n, mean, and the coefficient of variation (CV). For Tmax, only n, min, median, and max were reported.

[4] = Part III multiple-dose study, plasma pharmacokinetics; type: in vivo, human
Experimental: as §1, §2

[5] = single 3 h infusion of pyragrel 60 mg
[6] = single 3 h infusion of pyragrel 240 mg
[7] = Part I, single 3-h i.v. infusion of pyragrel 30 mg, plasma, n=8, mean ± SD
[8] = Part I, single 3-h i.v. infusion of pyragrel 60 mg, plasma, n=8, mean ± SD
[9] = Part I, single 3-h i.v. infusion of pyragrel 120 mg, plasma, n=8, mean ± SD
[10] = Part I, single 3-h i.v. infusion of pyragrel 180 mg, plasma, n=4, mean ± SD
[11] = Part I, single 3-h i.v. infusion of pyragrel 240 mg, plasma, n=4, mean ± SD
[12] = Part I, single 3-h i.v. infusion of pyragrel 300 mg, plasma, n=4, mean ± SD
[13] = Part III, multiple dose, 3-h infusions of pyragrel 180 mg for 6 days, plasma, n=12
[14] = Part III, single dose, 3-h infusion of pyragrel 180 mg, plasma, n=12

COc1cc(C=CC(=O)[O-])ccc1OCc1nc(C)c(C)nc1C.[Na+] [Pyragrel, sodium pyragrel]
Urinary excretion, share of the total drug amount ([1]; Part IV, three dose groups, pyragrel plus metabolites): more than 70% | Total cumulative urine excreted amounts over 24 h [1, 5]: 44.80 mg | Accumulative urinary excretion rate [1, 5]: 74.67% | Total cumulative urine excreted amounts over 24 h ([1]; single 3 h infusion of pyragrel 120 mg): 85.07 mg | Total cumulative urine excreted amounts over 24 h [1, 6]: 175.83 mg | Accumulative urinary excretion rate [1, 6]: 73.26% | Cumulative urinary drug recovery (normalized to pyragrel) within 24 h ([1]; single dose of pyragrel 60 mg): 0.94 ± 0.30% | Cumulative urinary drug recovery (normalized to pyragrel) within 24 h ([1]; single dose of pyragrel 120 mg): 0.67 ± 0.14% | Cumulative urinary drug recovery (normalized to pyragrel) within 24 h ([1]; single dose of pyragrel 240 mg): 0.79 ± 0.28% | LD50 [2]: 929.7 mg/kg | Pharmacokinetic process over the dose range ([3]; 30–300 mg dose range): linear | Tmax ([3]; Part I, across all six dose groups (30-300 mg), 3 h infusion): about 3 h | Plasma concentration remaining, fraction of Cmax ([3]; Part I, at 4 h after initiation of the 3 h infusion): 1/20 | AUCINF [3, 7]: 1,051.0 ± 185.8 h*µg·L^-1 | AUClast [3, 7]: 1,047.5 ± 182.7 h*µg·L^-1 | Cl [3, 7]: 29.26 ± 4.69 L/h | Tmax [3, 7]: 2.75 ± 0.46 h | Vz [3, 7]: 96.16 ± 31.87 L | t1/2 [3, 7]: 2.39 ± 1.03 h | AUCINF [3, 8]: 2,009.4 ± 235.97 h*µg·L^-1 | AUClast [3, 8]: 2,003.7 ± 235.9 h*µg·L^-1 | Cl [3, 8]: 30.23 ± 3.58 L/h | Cmax [3, 8]: 711.8 ± 100.2 µg/L | Tmax [3, 8]: 2.88 ± 0.35 h | Vz [3, 8]: 203.0 ± 81.47 L | t1/2 [3, 8]: 4.62 ± 1.69 h | AUCINF [3, 9]: 4,300.5 ± 807.5 h*µg·L^-1 | AUClast [3, 9]: 4,287.2 ± 812.7 h*µg·L^-1 | Cl [3, 9]: 28.76 ± 5.26 L/h | Cmax [3, 9]: 1,435.6 ± 319.5 µg·L^-1 | Tmax [3, 9]: 2.88 ± 0.35 h | Vz [3, 9]: 278.0 ± 162.5 L | t1/2 [3, 9]: 6.64 ± 3.53 h | AUCINF [3, 10]: 7,390.5 ± 414.7 h*µg·L^-1 | AUClast [3, 10]: 7,376.5 ± 413.0 h*µg·L^-1 | Cl [3, 10]: 24.41 ± 1.41 L/h | Cmax [3, 10]: 2,622.5 ± 439.9 µg·L^-1 | Tmax [3, 10]: 3.00 ± 0.00 h | Vz [3, 10]: 334.4 ± 110.8 L | t1/2 [3, 10]: 9.64 ± 3.58 h | AUCINF [3, 11]: 9,224.3 ± 2,716.3 h*µg·L^-1 | AUClast [3, 11]: 9,194.7 ± 2,703.5 h*µg·L^-1 | Cl [3, 11]: 27.50 ± 6.80 L/h | Cmax [3, 11]: 3,144.2 ± 931.2 µg·L^-1 | Tmax [3, 11]: 2.75 ± 0.50 h | Vz [3, 11]: 573.6 ± 180.3 L | t1/2 [3, 11]: 14.24 ± 1.66 h | AUCINF [3, 12]: 9,315.3 ± 1,219.1 h*µg·L^-1 | AUClast [3, 12]: 9,301.4 ± 1,215.2 h*µg·L^-1 | Cl [3, 12]: 32.62 ± 4.29 L/h | Cmax [3, 12]: 3,011.7 ± 303.2 µg·L^-1 | Tmax [3, 12]: 2.25 ± 0.50 h | Vz [3, 12]: 454.6 ± 191.4 L | t1/2 [3, 12]: 9.88 ± 4.26 h | AUCINF [4, 13]: 6,939.5 ± 2,072.8 h*µg·L^-1 | AUCTAU [4, 13]: 6,854.5 ± 2,062.7 h*µg·L^-1 | AUClast [4, 13]: 6,909.9 ± 2066.8 h*µg·L^-1 | Cl [4, 13]: 28.49 ± 8.49 L/h | Cmax [4, 13]: 2,447.8 ± 825.3 µg·L^-1 | Tmax [4, 13]: 2.42 ± 0.67 h | t1/2 [4, 13]: 6.51 ± 2.73 h | Cmin ([4]; Part III, pyragrel 180 mg, printed in column Single dose, footnote a: steady-state trough concentration, n=12): 4.22 ± 2.26^a µg·L^-1 | Cavg ([4]; Part III, pyragrel 180 mg, printed in column Single dose, footnote b: steady-state peak concentration, n=12): 571.2 ± 171.9^b µg·L^-1 | AUCINF [4, 14]: 6,680.3 ± 1,668.0 h*µg·L^-1 | AUClast [4, 14]: 6,663.3 ± 1665.7 h*µg·L^-1 | Cl [4, 14]: 28.85 ± 8.75 L/h | Tmax [4, 14]: 2.83 ± 0.39 h | Vz [4, 14]: 226.0 ± 141.7 L | t1/2 [4, 14]: 5.12 ± 1.91 h | Cmax ([4]; Part III, single dose, 3-h infusion of pyragrel 180 mg, plasma, n=12, footnote c: steady-state average concentration): 2,311.9 ± 514.4^c µg·L^-1 | Accumulation on repeated dose, in words ([4]; repeated dose of pyragrel 180 mg for 6 days (once- or twice-daily dosing)): no accumulation
